Several values for one entry are separate records, joined by “and”; a condition that tells them apart may be missing. Equal entries are not always repeated. Toxic doses and inconclusive results are not listed.
Test system: L1210 leukemia ip in BDF1 mice, survival T/C
Assay: NCI In Vivo Anticancer Drug Screen. Data for tumor model L1210 Leukemia (intraperitoneal) in B6D2F1 (BDF1) mice
Conditions: endpoint: mean survival time, higher = longer survival
In short: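 Transplanted-tumor mice were given test agent; controls received vehicle only. Survival readings from the two groups were divided (treated over control).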

[1] = dose: 100.0 mg/kg/injection, schedule: Q01DX001 (ip), vehicle: carboxymethylcellulose (CMC)
[2] = dose: 200.0 mg/kg/injection, schedule: Q01DX001 (ip), vehicle: carboxymethylcellulose (CMC)
[3] = dose: 400.0 mg/kg/injection, schedule: Q01DX001 (ip), vehicle: carboxymethylcellulose (CMC)
[4] = dose: 100.0 mg/kg/injection, schedule: Q04DX003 (ip), vehicle: saline
[5] = dose: 200.0 mg/kg/injection, schedule: Q04DX003 (ip), vehicle: saline
[6] = dose: 400.0 mg/kg/injection, schedule: Q04DX003 (ip), vehicle: saline
[7] = dose: 100.0 mg/kg/injection, schedule: Q01DX009 (ip), vehicle: saline
[8] = dose: 200.0 mg/kg/injection, schedule: Q01DX009 (ip), vehicle: saline
[9] = dose: 400.0 mg/kg/injection, schedule: Q01DX009 (ip), vehicle: saline
[10] = dose: 50.0 mg/kg/injection, schedule: Q01DX009 (ip), vehicle: saline with Tween-80
[11] = dose: 100.0 mg/kg/injection, schedule: Q01DX009 (ip), vehicle: saline with Tween-80
[12] = dose: 200.0 mg/kg/injection, schedule: Q01DX009 (ip), vehicle: saline with Tween-80
[13] = dose: 100.0 mg/kg/injection, schedule: Q04DX003 (ip), vehicle: Klucel (hydroxypropylcellulose) (HPC)
[14] = dose: 50.0 mg/kg/injection, schedule: Q01DX001 (ip), vehicle: Klucel (hydroxypropylcellulose) (HPC)
[15] = dose: 100.0 mg/kg/injection, schedule: Q01DX001 (ip), vehicle: Klucel (hydroxypropylcellulose) (HPC)
[16] = dose: 100.0 mg/kg/injection, schedule: Q01DX009 (ip), vehicle: Klucel (hydroxypropylcellulose) (HPC)
[17] = dose: 200.0 mg/kg/injection, schedule: Q01DX009 (ip), vehicle: Klucel (hydroxypropylcellulose) (HPC)
[18] = dose: 200.0 mg/kg/injection, schedule: Q04DX003 (ip), vehicle: Klucel (hydroxypropylcellulose) (HPC)
[19] = dose: 400.0 mg/kg/injection, schedule: Q01DX009 (ip), vehicle: Klucel (hydroxypropylcellulose) (HPC)
[20] = dose: 400.0 mg/kg/injection, schedule: Q04DX003 (ip), vehicle: Klucel (hydroxypropylcellulose) (HPC)

## CC(C)C(CCN1CCCCC1)(CN=C(N)N)c1cccc2ccccc12 (stereo not drawn)
dose: 5.0 mg/kg/injection, schedule: Q01DX009 (ip), vehicle: saline
  T/C: 99 % of control
dose: 6.25 mg/kg/injection, schedule: Q04DX002 (ip), vehicle: saline
  T/C: 100 % of control
dose: 10.0 mg/kg/injection, schedule: Q01DX009 (ip), vehicle: saline
  T/C: 100 % of control
dose: 12.5 mg/kg/injection, schedule: Q04DX002 (ip), vehicle: saline
  T/C: 93 % of control
dose: 20.0 mg/kg/injection, schedule: Q01DX009 (ip), vehicle: saline
  T/C: 101 % of control
dose: 25.0 mg/kg/injection, schedule: Q04DX002 (ip), vehicle: saline
  T/C: 97 % of control

## COc1cccc(C2N(Cc3ccccc3OC)CCCN2Cc2ccccc2OC)c1
dose: 50.0 mg/kg/injection, schedule: Q01DX001 (ip), vehicle: carboxymethylcellulose (CMC)
  T/C: 93 % of control
[1]
  T/C: 102 % of control
[2]
  T/C: 106 % of control
[3]
  T/C: 102 % of control

## CN1CCN=C1c1ccc(NC(=O)c2cccc(C(=O)Nc3ccc(C4=NCCN4C)cc3)c2)cc1
dose: 1.88 mg/kg/injection, schedule: Q01DX Z (ip), vehicle: saline
  T/C: 107 % of control
dose: 3.75 mg/kg/injection, schedule: Q01DX Z (ip), vehicle: saline
  T/C: 101 % of control
dose: 7.5 mg/kg/injection, schedule: Q01DX Z (ip), vehicle: saline
  T/C: 122 % of control
dose: 30.0 mg/kg/injection, schedule: Q01DX Z (ip), vehicle: saline
  T/C: 154 % of control
dose: 60.0 mg/kg/injection, schedule: Q01DX Z (ip), vehicle: saline
  T/C: 234 % of control
dose: 120.0 mg/kg/injection, schedule: Q01DX Z (ip), vehicle: saline
  T/C: 171 % of control
dose: 240.0 mg/kg/injection, schedule: Q01DX Z (ip), vehicle: saline
  T/C: 119 % of control
dose: 480.0 mg/kg/injection, schedule: Q01DX Z (ip), vehicle: saline
  T/C: 106 % of control

## Cc1cccc(Cl)[n+]1[O-]
[4]
  T/C: 97 % of control
[5]
  T/C: 97 % of control
[6]
  T/C: 86 % of control

## CC(=NC(Cc1ccccc1)C(=O)O)NC(Cc1ccccc1)C(=O)O (stereo not drawn)
[7]
  T/C: 106 % of control
[8]
  T/C: 101 % of control
[9]
  T/C: 100 % of control

## CCN(CC)C(C)(C)COC(=O)c1ccc([N+](=O)[O-])cc1
dose: 222.0 mg/kg/injection, schedule: Q01DX Z (ip), vehicle: methylcellulose (MC)
  T/C: 121 % of control
dose: 333.0 mg/kg/injection, schedule: Q01DX Z (ip), vehicle: methylcellulose (MC)
  T/C: 101 % of control
dose: 500.0 mg/kg/injection, schedule: Q01DX Z (ip), vehicle: methylcellulose (MC)
  T/C: 96 % of control

## CC(=O)COCC1CO1 (stereo not drawn)
[10]
  T/C: 92 % of control
[11]
  T/C: 92 % of control
[12]
  T/C: 100 % of control

## Cc1ccc2c(c1)CC=CO2
dose: 50.0 mg/kg/injection, schedule: Q01DX009 (ip), vehicle: carboxymethylcellulose (CMC)
  T/C: 91 % of control
[1]
  T/C: 96 % of control
dose: 100.0 mg/kg/injection, schedule: Q01DX009 (ip), vehicle: carboxymethylcellulose (CMC)
  T/C: 94 % of control and 97 % of control
[11]
  T/C: 88 % of control
dose: 100.0 mg/kg/injection, schedule: Q04DX003 (ip), vehicle: saline with Tween-80
  T/C: 101 % of control
[2]
  T/C: 96 % of control
dose: 200.0 mg/kg/injection, schedule: Q01DX009 (ip), vehicle: carboxymethylcellulose (CMC)
  T/C: 94 % of control and 95 % of control
dose: 200.0 mg/kg/injection, schedule: Q04DX003 (ip), vehicle: saline with Tween-80
  T/C: 97 % of control
[3]
  T/C: 100 % of control
dose: 400.0 mg/kg/injection, schedule: Q01DX009 (ip), vehicle: carboxymethylcellulose (CMC)
  T/C: 96 % of control
dose: 400.0 mg/kg/injection, schedule: Q01DX009 (ip), vehicle: saline with Tween-80
  T/C: 92 % of control
dose: 400.0 mg/kg/injection, schedule: Q04DX003 (ip), vehicle: saline with Tween-80
  T/C: 98 % of control

## CCCCOC(=O)C=O
[10]
  T/C: 106 % of control
[11]
  T/C: 97 % of control

## COc1ccc2c(c1OC)C1(CCN(C)C)CC(=O)CCC1C=C2 (stereo not drawn)
dose: 3.12 mg/kg/injection, schedule: Q01DX009 (ip), vehicle: Klucel (hydroxypropylcellulose) (HPC)
  T/C: 103 % of control
dose: 6.25 mg/kg/injection, schedule: Q01DX009 (ip), vehicle: Klucel (hydroxypropylcellulose) (HPC)
  T/C: 95 % of control
dose: 12.5 mg/kg/injection, schedule: Q01DX009 (ip), vehicle: Klucel (hydroxypropylcellulose) (HPC)
  T/C: 98 % of control
dose: 25.0 mg/kg/injection, schedule: Q01DX009 (ip), vehicle: Klucel (hydroxypropylcellulose) (HPC)
  T/C: 86 % of control
[13]
  T/C: 98 % of control

## CCCCCCP(=O)(CCCCCC)CCCCCC (tested in a mixture with another compound)
[11]
  T/C: 100 % of control
[12]
  T/C: 86 % of control

## CC1(C)N=C(N)N=C(N)N1c1cccc(OCCCc2ccccc2)c1
dose: 25.0 mg/kg/injection, schedule: Q01DX001 (ip), vehicle: Klucel (hydroxypropylcellulose) (HPC)
  T/C: 86 % of control
[14]
  T/C: 86 % of control
[15]
  T/C: 91 % of control

## CCOC(=O)C(CC1OCCO1)C1=NC(C)(C)CC(C)O1 (stereo not drawn)
[7]
  T/C: 96 % of control
[4]
  T/C: 106 % of control
[8]
  T/C: 100 % of control
[5]
  T/C: 92 % of control
[9]
  T/C: 96 % of control
[6]
  T/C: 92 % of control

## CCCCCC(C)(C1=NC(C)(C)CC(C)O1)c1ccccc1 (stereo not drawn)
dose: 100.0 mg/kg/injection, schedule: Q01DX009 (ip), vehicle: saline sonified
  T/C: 93 % of control
dose: 200.0 mg/kg/injection, schedule: Q01DX009 (ip), vehicle: saline sonified
  T/C: 104 % of control
dose: 400.0 mg/kg/injection, schedule: Q01DX009 (ip), vehicle: saline sonified
  T/C: 93 % of control

## CN(CCC(C#N)(CCC#N)c1ccccc1)Cc1ccccc1 (stereo not drawn)
dose: 75.0 mg/kg/injection, schedule: Q01DX001 (ip), vehicle: saline
  T/C: 102 % of control
dose: 150.0 mg/kg/injection, schedule: Q01DX001 (ip), vehicle: saline
  T/C: 102 % of control

## O=S(=O)(C1CCCCC1)C1CCCC1
[16]
  T/C: 97 % of control
[13]
  T/C: 102 % of control
[17]
  T/C: 100 % of control
[18]
  T/C: 105 % of control
[19]
  T/C: 107 % of control
[20]
  T/C: 107 % of control

## CC(C)c1cc2c(cc1O)C1(C)CCCC(C)(C(=O)O)C1CC2 (stereo not drawn)
dose: 50.0 mg/kg/injection, schedule: Q04DX003 (ip), vehicle: acetone
  T/C: 87 % of control
dose: 100.0 mg/kg/injection, schedule: Q01DX001 (ip), vehicle: acetone
  T/C: 97 % of control
dose: 100.0 mg/kg/injection, schedule: Q04DX003 (ip), vehicle: acetone
  T/C: 90 % of control
dose: 200.0 mg/kg/injection, schedule: Q01DX001 (ip), vehicle: acetone
  T/C: 92 % of control
dose: 200.0 mg/kg/injection, schedule: Q04DX003 (ip), vehicle: acetone
  T/C: 89 % of control

## O=C(O)c1c(Br)c(Br)c(Br)c(Br)c1C(=O)Nc1cc([N+](=O)[O-])ccc1O
[16]
  T/C: 106 % of control
[17]
  T/C: 122 % of control
[19]
  T/C: 101 % of control

## Cc1cc(OC(=O)/C=C/C(=O)Oc2cc(C)c(Cl)c(C)c2)cc(C)c1Cl
[16]
  T/C: 97 % of control
[13]
  T/C: 105 % of control
[17]
  T/C: 95 % of control
[18]
  T/C: 104 % of control
[19]
  T/C: 97 % of control
[20]
  T/C: 104 % of control

## COC(/C=C/c1ccccc1)=N\S(=O)(=O)c1ccccc1
[14]
  T/C: 98 % of control
[15]
  T/C: 100 % of control
dose: 200.0 mg/kg/injection, schedule: Q01DX001 (ip), vehicle: Klucel (hydroxypropylcellulose) (HPC)
  T/C: 107 % of control

## OC(/N=C/c1ccccc1)C(Cl)(Cl)Cl (stereo not drawn)
dose: 100.0 mg/kg/injection, schedule: Q04DX002 (ip), vehicle: Klucel (hydroxypropylcellulose) (HPC)
  T/C: 103 % of control
dose: 200.0 mg/kg/injection, schedule: Q04DX002 (ip), vehicle: Klucel (hydroxypropylcellulose) (HPC)
  T/C: 88 % of control
dose: 400.0 mg/kg/injection, schedule: Q04DX002 (ip), vehicle: Klucel (hydroxypropylcellulose) (HPC)
  T/C: 114 % of control

## CCOC(=O)NCC(CCN1CCCCC1)(c1cccc2ccccc12)C(C)C (stereo not drawn)
[13]
  T/C: 100 % of control
[18]
  T/C: 88 % of control

From PubChem BioAssay AID248 (DTP/NCI, 2004)
